{
  "source": "ChEMBL document CHEMBL1201862",
  "about": "“PubChem BioAssay data set” (2004)",
  "key": {"[1]": {"test": "inhibitors of HIV Env-driven cell fusion, dose response, cherry-pick (AID 652057)", "format": "functional, cell-based"}, "[2]": {"test": "inhibitors of clade B AD8 Env fusion, dose response, cell-based, cherry-pick (AID 652062);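 further: potency is for inhibitors of fusion seen as a drop in luminescence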", "format": "functional"}, "[3]": {"test": "ZM109 Env clade C HIV-1 fusion inhibitors, dose response, HeLa effector, CEM target cells, luciferase, cherry-pick (AID 652058)", "format": "functional, cell-based"}, "[4]": {"test": "CEM21 lymphoblast cell cytotoxicity, dose response, cytotoxicity control for viral fusion inhibitor project, CellTiter-Glo luminescence, cherry-picked (AID 652042);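 further: potency for signal decrease meaning cytotoxicity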", "format": "functional, cell-based"}, "[5]": {"test": "inhibitors of intracellular T. cruzi replication, confirmation, NIH3T3 host cells, beta-gal luminescence (AID 2044);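 further: luminescent beta-galactosidase reporter signal from transgenic T. cruzi replicating inside host cells; inhibitors lower the luminescence signal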", "format": "functional, cell-based"}, "[6]": {"test": "cytotoxicity toward NIH3T3 fibroblasts, dose response, counter-screen, cell-based, ATP luminescence, mouse fibroblasts (AID 2010);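 further: cells exposed to compound for about 90 hours before reading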", "format": "functional"}, "[7]": {"test": "THP-1 cell cytotoxicity, dose response, cytotoxicity control for Vif-APOBEC3G degradation inhibitor project, THP-1 cells (AID 1117359)", "format": "functional", "settings": "Human immunodeficiency virus 1, THP-1"}, "[8]": {"test_system": "HEK293", "test": "NOD2 signaling inhibitors in MDP-stimulated cells, cell-based, uHTS, luminescence (AID 2001)", "format": "functional", "settings": "Homo sapiens"}, "[9]": {"test_system": "HEK293", "test": "cells", "format": "functional, cell-based", "settings": "Homo sapiens"}, "[10]": {"test_system": "HEK293", "test": "cells", "format": "functional, cell-based", "settings": "Homo sapiens", "remark": "listed apart in the source"}, "[11]": {"test_system": "HEK293", "test": "NOD1 signaling inhibitors, primary screen, cell-based, luminescence, uHTS (AID 1578)", "format": "functional", "settings": "Homo sapiens"}, "[12]": {"target": "T1, DNA repair protein RAD52 homolog (Homo sapiens, UniProt P43351)", "T1 sequence (P43351 whole entry)": "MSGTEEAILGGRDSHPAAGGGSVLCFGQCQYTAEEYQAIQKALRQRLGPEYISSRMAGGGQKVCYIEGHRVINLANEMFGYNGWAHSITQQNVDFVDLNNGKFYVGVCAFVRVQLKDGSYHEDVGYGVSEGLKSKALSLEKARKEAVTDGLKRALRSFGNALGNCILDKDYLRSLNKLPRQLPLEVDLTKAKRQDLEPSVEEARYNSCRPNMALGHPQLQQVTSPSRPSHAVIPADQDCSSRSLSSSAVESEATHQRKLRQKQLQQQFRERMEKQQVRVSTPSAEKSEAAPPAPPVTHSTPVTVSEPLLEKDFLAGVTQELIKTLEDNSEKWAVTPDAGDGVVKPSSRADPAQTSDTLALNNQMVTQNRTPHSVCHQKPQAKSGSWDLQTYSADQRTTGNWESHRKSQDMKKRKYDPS", "format": "functional, biochemical"}, "[13]": {"target": "T2, Histone-lysine N-methyltransferase NSD2 (Homo sapiens, UniProt O96028)", "T2 sequence (O96028 whole entry)": "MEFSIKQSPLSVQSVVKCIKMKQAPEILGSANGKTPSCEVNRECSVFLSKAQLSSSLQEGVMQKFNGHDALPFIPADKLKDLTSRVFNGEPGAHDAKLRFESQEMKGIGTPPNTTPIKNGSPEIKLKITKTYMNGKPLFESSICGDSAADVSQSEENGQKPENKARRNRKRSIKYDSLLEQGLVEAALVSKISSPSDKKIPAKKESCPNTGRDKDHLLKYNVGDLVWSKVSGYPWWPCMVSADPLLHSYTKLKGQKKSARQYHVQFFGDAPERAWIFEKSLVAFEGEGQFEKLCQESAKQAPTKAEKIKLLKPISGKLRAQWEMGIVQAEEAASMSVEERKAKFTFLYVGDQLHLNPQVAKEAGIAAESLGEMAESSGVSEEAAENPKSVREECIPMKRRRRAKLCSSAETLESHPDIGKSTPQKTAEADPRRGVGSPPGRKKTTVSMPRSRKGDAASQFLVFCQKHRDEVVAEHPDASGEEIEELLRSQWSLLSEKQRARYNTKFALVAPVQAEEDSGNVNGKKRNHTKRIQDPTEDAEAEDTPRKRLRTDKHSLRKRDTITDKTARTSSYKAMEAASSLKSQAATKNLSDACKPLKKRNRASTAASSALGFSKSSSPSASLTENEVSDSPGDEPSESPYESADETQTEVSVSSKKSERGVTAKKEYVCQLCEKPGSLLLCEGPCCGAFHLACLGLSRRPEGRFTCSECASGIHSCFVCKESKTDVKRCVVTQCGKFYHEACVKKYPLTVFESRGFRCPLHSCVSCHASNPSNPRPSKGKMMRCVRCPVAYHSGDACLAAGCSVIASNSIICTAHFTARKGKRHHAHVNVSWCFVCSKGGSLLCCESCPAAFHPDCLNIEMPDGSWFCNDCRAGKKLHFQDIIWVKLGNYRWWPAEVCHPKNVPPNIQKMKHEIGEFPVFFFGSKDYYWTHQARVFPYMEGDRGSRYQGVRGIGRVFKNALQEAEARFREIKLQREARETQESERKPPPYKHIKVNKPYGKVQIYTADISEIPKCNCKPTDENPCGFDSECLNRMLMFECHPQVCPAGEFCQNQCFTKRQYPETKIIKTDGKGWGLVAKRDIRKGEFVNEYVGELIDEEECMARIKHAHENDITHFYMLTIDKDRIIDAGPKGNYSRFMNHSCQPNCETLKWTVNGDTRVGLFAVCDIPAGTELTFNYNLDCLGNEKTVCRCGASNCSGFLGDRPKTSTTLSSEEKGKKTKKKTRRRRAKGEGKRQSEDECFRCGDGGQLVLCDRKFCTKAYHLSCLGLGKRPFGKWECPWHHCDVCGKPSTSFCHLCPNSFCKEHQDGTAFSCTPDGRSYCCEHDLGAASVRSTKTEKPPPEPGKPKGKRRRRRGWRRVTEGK", "format": "biochemical"}, "[14]": {"test": "miR-122 activators in hepatoma reporter cells, dose response, cell-based, Huh7 psiCHECK-miR122, Renilla luciferase, cherry-picked (AID 651956);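 further: huh7 hepatoma cells stably carrying a psiCHECK-2 miR-122 sensor plasmid; renilla luciferase signal reporting endogenous miR-122 activity after 48 h compound exposure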", "format": "functional"}, "[15]": {"target": "Paired box protein Pax-8 (Homo sapiens, UniProt Q06710)", "sequence (Q06710 whole entry)": "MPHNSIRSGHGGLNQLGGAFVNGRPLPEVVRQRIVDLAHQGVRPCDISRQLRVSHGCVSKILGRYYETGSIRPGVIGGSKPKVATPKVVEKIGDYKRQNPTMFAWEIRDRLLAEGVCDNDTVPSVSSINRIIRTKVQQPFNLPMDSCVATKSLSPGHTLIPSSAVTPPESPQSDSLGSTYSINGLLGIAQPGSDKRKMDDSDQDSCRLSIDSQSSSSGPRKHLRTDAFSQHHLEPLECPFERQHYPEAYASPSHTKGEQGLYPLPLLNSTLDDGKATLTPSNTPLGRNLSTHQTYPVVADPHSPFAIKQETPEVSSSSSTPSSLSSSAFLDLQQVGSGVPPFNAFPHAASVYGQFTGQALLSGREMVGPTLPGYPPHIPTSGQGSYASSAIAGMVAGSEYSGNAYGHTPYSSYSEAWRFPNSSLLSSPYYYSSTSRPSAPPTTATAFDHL", "test": "inhibitors of PAX8-driven TPO luciferase reporter, dose response, RMG-I cells, cherry-pick (AID 687027);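 further: luciferase reporter driven by Pax8 target thyroperoxidase promoter measured by SteadyGlo luminescence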", "format": "functional, cell-based"}, "[16]": {"test": "P. falciparum Dd2 growth inhibitors, dose response, SYBR Green, dry powder samples (AID 1159566);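 further: potency for growth inhibition with lower SYBR green DNA signal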", "format": "functional, cell-based"}, "[17]": {"test": "P. falciparum 3D7-ScDHODH growth inhibitors, dose response, SYBR Green, dry powder samples (AID 1159570);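 further: parasite growth measured after 72 hours of compound exposure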", "format": "functional, cell-based"}, "[18]": {"test": "P. falciparum ATP4 D1247Y mutant growth inhibitors, dose response, NITD609-resistant line, SYBR Green, dry powder (AID 1159571);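 further: parasites synchronized at ring stage by sorbitol before testing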", "format": "functional, cell-based"}, "[19]": {"test": "P. falciparum Dd2 growth inhibitors, dose response, SYBR Green, cherry-picked samples (AID 1159567)", "format": "functional, cell-based"}},
  "note": "Activity calls are given as the source filed them.",
  "data": [
    {"smiles": "CCC(=O)Nc1ccc2c(c1)OC[C@H](C)N(CC1CCCCC1)C[C@H](C)[C@@H](OC)CN(C)C2=O", "values": [
      {"measurement": "AC50", "setting": "[1]", "value": "2.93 µM (active)"},
      {"measurement": "AC50", "setting": "[2]", "value": "4.48 µM (active)"},
      {"measurement": "AC50", "setting": "[3]", "value": "2.21 µM (active)"},
      {"measurement": "AC50", "setting": "[4]", "value": "55.6 µM (active)"}
    ]},
    {"smiles": "CCN1CCN(c2ccc(S(=O)(=O)N3CCCCC3)cc2NC(=O)Cc2ccc(Cl)c(Cl)c2)CC1", "values": [
      {"measurement": "EC50", "setting": "[5]", "value": "0.162 µM (active)"},
      {"measurement": "EC50", "setting": "[6]", "value": "6.52 µM (active)"},
      {"measurement": "CC50", "setting": "[7]", "value": "21.2 µM (active)"}
    ]},
    {"smiles": "Cc1c(NS(=O)(=O)c2ccc3c(c2)OCCO3)cccc1-c1nc2cccnc2s1", "values": [
      {"measurement": "IC50", "setting": "[8]", "value": "4.02 µM (active)"},
      {"measurement": "IC50", "setting": "[9]", "value": "10.9 µM (active)"},
      {"measurement": "IC50", "setting": "[10]", "value": "5.27 µM (active)"},
      {"measurement": "EC50", "setting": "[11]", "value": "4.14 µM (active)"}
    ]},
    {"smiles": "CN1CCN(c2ccc(N)cc2Cl)CC1", "values": [
      {"measurement": "AC50", "setting": "[12]", "value": "0.931 µM (active)"},
      {"measurement": "AC50", "setting": "[13]", "value": "> 20 µM (inactive)"}
    ]},
    {"smiles": "C[C@@H]1CN([C@@H](C)CO)C(=O)Cc2cc(NS(=O)(=O)c3ccc(F)cc3)ccc2O[C@H]1CN(C)Cc1ccc(Oc2ccccc2)cc1", "values": [
      {"measurement": "AC50", "setting": "[14]", "value": "1.96 µM (active)"},
      {"measurement": "AC50", "setting": "[15]", "value": "5.32 µM (active)"}
    ]},
    {"smiles": "C[C@@H]1CN([C@@H](C)CO)C(=O)c2cccc(NC(=O)Nc3ccc4c(c3)OCO4)c2O[C@@H]1CN(C)C(=O)Nc1ccc2c(c1)OCO2", "values": [
      {"measurement": "AC50", "setting": "[16]", "value": "0.954 µM (active)"},
      {"measurement": "AC50", "setting": "[17]", "value": "1.52 µM (active)"},
      {"measurement": "AC50", "setting": "[18]", "value": "0.865 µM (active)"},
      {"measurement": "AC50", "setting": "[19]", "value": "1.2 µM (active)"}
    ]}
  ]
}
